Measured values from ChEMBL document CHEMBL1141370, “Biologically active triterpenoid saponins from Ardisia japonica” (J Nat Prod, 2007).

What was measured:
Assay type in all cases: cell-based
[1] = test system: HL-60; experiment: Cytotoxicity against human HL60 cell line by MTT assay
[2] = Cytotoxicity against human KATO3 cell line by MTT assay
[3] = test system: A549; experiment: Cytotoxicity against human A549 cell line by MTT assay

Row | SMILES | IC50 [1] [µM] | IC50 [2] [µM] | IC50 [3] [µM]
1 | C[C@@H]1O[C@@H](O[C@H]2[C@H](O[C@H]3CO[C@@H](O[C@H]4CC[C@]5(C)[C@H]6CC=C7[C@@H]8C[C@@](C)(CO)CC[C@]8(CO)[C@@H]8O[C@@H]8[C@@]7(C)[C@]6(C)CC[C@H]5C4(C)C)[C@H](O[C@@H]4O[C@H](CO)[C@@H](O)[C@H](O)[C@H]4O)[C@H]3O)O[C@H](CO)[C@@H](O)[C@@H]2O)[C@H](O)[C@H](O)[C@H]1O [ARDISIANOSIDE K] | > 100 | > 100 | > 100
2 | CC1(C)CC[C@]23CO[C@@]4(CC[C@@H]5[C@@]6(C)CC[C@H](O[C@@H]7OC[C@H](O[C@@H]8O[C@H](CO)[C@@H](O)[C@H](O[C@@H]9O[C@H](CO)[C@@H](O[C@@H]%10O[C@H](CO)[C@@H](O)[C@H](O)[C@H]%10O)[C@H](O[C@@H]%10O[C@H](CO)[C@@H](O)[C@H](O)[C@H]%10O)[C@H]9O)[C@H]8O[C@@H]8OC[C@@H](O)[C@H](O)[C@H]8O)[C@H](O)[C@H]7O[C@@H]7O[C@H](CO)[C@@H](O)[C@H](O)[C@H]7O)C(C)(C)[C@@H]6CC[C@@]5(C)[C@]4(C)C[C@H]2O)[C@@H]3C1 [ARDISIANOSIDES A] | 2.7 | 0.4 | 6
3 | C[C@@H]1O[C@@H](O[C@H]2[C@H](O[C@H]3CO[C@@H](O[C@H]4CC[C@]5(C)[C@H]6CC[C@]78OC[C@@]9(CC[C@](C)(CO)C[C@H]97)[C@H](O)C[C@@]8(C)[C@]6(C)CC[C@H]5C4(C)C)[C@H](O[C@@H]4O[C@H](CO)[C@@H](O)[C@H](O)[C@H]4O)[C@H]3O)O[C@H](CO)[C@@H](O)[C@@H]2O)[C@H](O)[C@H](O)[C@H]1O [ARDISICRENOSIDE A] | > 100 | 14.5 | > 100
4 | CC1(C)[C@@H](O[C@@H]2OC[C@H](O[C@@H]3O[C@H](CO)[C@@H](O)[C@H](O[C@@H]4O[C@H](CO)[C@@H](O)[C@H](O)[C@H]4O)[C@H]3O[C@@H]3OC[C@@H](O)[C@H](O)[C@H]3O)[C@H](O)[C@H]2O[C@@H]2O[C@H](CO)[C@@H](O)[C@H](O)[C@H]2O)CC[C@]2(C)[C@H]3CC[C@]45OC[C@@]6(CC[C@](C)(C=O)C[C@H]64)[C@H](O)C[C@@]5(C)[C@]3(C)CC[C@@H]12 [CYCLAMIN] | 3 | 0.3 | 3.3
5 | C[C@@H]1O[C@@H](O[C@H]2[C@H](O[C@H]3CO[C@@H](O[C@H]4CC[C@]5(C)[C@H]6CC[C@]78OC[C@@]9(CC[C@](C)(C=O)C[C@H]97)[C@H](O)C[C@@]8(C)[C@]6(C)CC[C@H]5C4(C)C)[C@H](O)[C@H]3O)O[C@H](CO)[C@@H](O)[C@@H]2O)[C@H](O)[C@H](O)[C@H]1O [CYCLAMIRETIN A] | 18.1 | 1.7 | 29.2
6 | COc1cc([C@@H]2c3cc4c(cc3[C@@H](O[C@@H]3O[C@@H]5CO[C@@H](C)O[C@H]5[C@H](O)[C@H]3O)[C@H]3COC(=O)[C@H]23)OCO4)cc(OC)c1O [ETOPOSIDE] | 0.3 | 0.1 | 20.9
7 | CC1(C)[C@@H](O[C@@H]2OC[C@H](O[C@@H]3O[C@H](CO)[C@@H](O)[C@H](O)[C@H]3O[C@@H]3OC[C@@H](O)[C@H](O)[C@H]3O)[C@H](O)[C@H]2O)CC[C@]2(C)[C@H]3CC[C@]45OC[C@@]6(CC[C@](C)(C=O)C[C@H]64)[C@H](O)C[C@@]5(C)[C@]3(C)CC[C@@H]12 [PRIMULANIN] | 24.7 | 3.3 | 27.7
